Source: patent US7326715B2, “4-Phenyl-6-substituted-pyrimidine-2-carbonitrile derivatives” (N.V. Organon, priority 2005, dated 2008)
Structures can show the parent of a compound that is named as a salt.

What follows are compounds tested against T1, recombinant human Cathepsin K (Homo sapiens, UniProt P43235) (assay: Cathepsin K activity: inhibition of recombinant human Cathepsin K (Z-Phe-Arg-AMC fluorescence)). Settings: substrate Z-Phe-Arg-AMC, pH 5.5, fluorescence at 10 minutes, read-out: pIC50 (negative logarithm of the IC50 concentration) for inhibition of human cathepsin K (converted).
T1 sequence (P43235 115-329): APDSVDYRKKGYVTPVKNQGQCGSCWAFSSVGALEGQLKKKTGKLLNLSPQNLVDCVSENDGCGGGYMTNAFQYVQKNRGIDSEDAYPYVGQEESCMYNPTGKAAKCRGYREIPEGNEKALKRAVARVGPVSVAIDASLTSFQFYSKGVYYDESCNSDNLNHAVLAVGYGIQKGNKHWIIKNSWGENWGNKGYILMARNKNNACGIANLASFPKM
Type: biochemical
Method: To a 384 well microtitre plate is added 5 μl of a 100 μM solution of test compound in assay buffer (100 mM sodium acetate pH 5.5, 5 mM EDTA, 5 mM dithiothreitol) with 10% dimethylsulfoxide (DMSO), plus 10 μl of 100 μM solution of the substratre Z-Phe-Arg-AMC (Bachem; 7-amido-coumarine derivative of the dipeptide N-benzyloxycarbonyl-Phe-Arg-OH) in assay buffer and 25 μl of assay buffer. 10 μl of a 1 mg/l solution of activated recombinant human cathepsin K, in assay buffer, is then added to the well, yielding a final inhibitor concentration of 10 μM. Enzyme activity is determined by measuring the fluorescence of the liberated aminomethylcoumarin at […] using 390 nm excitation, at 10 minutes. Percentage enzyme activity is calculated by comparison of this activity to that of a solution containing no inhibitor. Compounds are subsequently subjected to a dose response curve analysis in order to determine IC50 values for active compounds (where IC50 is the concentration of test compound causing 50% inhibition of the enzymatic activity).
Compounds of the invention typically have a pIC50 (negative logarithm of the IC50 concentration) for inhibition of human cathepsin K of more than 6, preferably more than 7 and most preferably a pIC50 of more than 8, such as for the compounds of Examples 1, 2a, 2b, 3, 5, 6, 8, 12, 14, 13, 16k, 16n, 16o, 17, 22a, 22b, 22c

IC50 | SMILES
< 10 nM | COCCN1CCN(c2cc(-c3cccc(C(F)(F)F)c3)nc(C#N)n2)CC1 [Example 2a, 4-[4-(2-Methoxy-ethyl)-piperazin-1-yl]-6-(3-trifluoromethy-phenyl)-pyrimidine-2-carbonitrile]
< 10 nM | N#Cc1nc(-c2cccc(C(F)(F)F)c2)cc(N2CCN(CC(N)=O)CC2)n1 [Example 2b, 4-(4-carbamoylmethyl-piperazin-1-yl)-6-(3-trifluoromethyl-phenyl)-pyrimidine-2-carbonitrile]
< 10 nM | CN1CCN(c2cc(-c3cccc(C(F)(F)F)c3)nc(C#N)n2)CC1(C)C [Example 12, 4-(3,3,4-Trimethyl-piperazin-1-yl)-6-(3-trifluoromethyl-phenyl)-pyrimidine-2-carbonitrile]
< 10 nM | CCN(CC)CCOc1cc(-c2cccc(C(F)(F)F)c2)nc(C#N)n1 [Example 22c, 4-(2-Diethylamino-ethoxy)-6-(3-trifluoromethyl-phenyl)-pyrimidine-2-carbonitrile]
< 10 nM | N#Cc1nc(NCC(=O)O)cc(-c2cccc(C(F)(F)F)c2)n1 [Example 16o, 4-(Carboxymethyl-amino)-6-(3-trifluoromethyl-phenyl)-pyrimidine-2-carbonitrile]
< 10 nM | N#Cc1nc(-c2cccc(C(F)(F)F)c2)cc(N2CCN(CC3CC3)CC2)n1 [Example 6, 4-(4-Cyclopropylmethyl-piperazin-1-yl)-6-(trifluoromethyl-phenyl)-pyrimidine-2-carbonitrile trifluoroacetic acid salt]
< 10 nM | N#Cc1nc(OCCN2CCOCC2)cc(-c2cccc(C(F)(F)F)c2)n1 [Example 22b, 4-(2-Morpholin-4-yl-ethoxy)-6-(3-trifluoromethyl-phenyl)-pyrimidine-2-carbonitrile]
< 10 nM | N#Cc1nc(-c2cccc(C(F)(F)F)c2)cc(N2CCNCC2)n1 [Example 1, 4-(Piperazin-1-y)l-6-(3-trifluoromethylphenyl)-pyrimidine-2-carbonitrile]
< 10 nM | N#Cc1nc(OCCN2CCCCC2)cc(-c2cccc(C(F)(F)F)c2)n1 [Example 22a, 4-(2-Piperidin-1-yl-ethoxy)-6-(3-trifluoromethyl-phenyl)-pyrimidine-2-carbonitrile]
< 10 nM | CN1CCCN(c2cc(-c3cccc(C(F)(F)F)c3)nc(C#N)n2)CC1 [Example 14, 4-(4-Methyl-[1,4]diazepan-1-yl)-6-(3-trifluoromethyl-phenyl)-pyrimidine-2-carbonitrile]
< 10 nM | N#Cc1nc(NCc2nnn[nH]2)cc(-c2cccc(C(F)(F)F)c2)n1 [Example 16n, 4-[(1H-Tetrazol-5-ylmethyl)-amino]-6-(3-trifluoromethyl-phenyl)-pyrimidine-2-carbonitrile]
< 10 nM | N#Cc1nc(-c2cccc(C(F)(F)F)c2)cc(N2CCCNCC2)n1 [Example 13, 4-[1,4]Diazepan-1-yl-6-(3-trifluoromethylphenyl)-pyrimidine-2-carbonitrile]
< 10 nM | N#Cc1nc(-c2cccc(C(F)(F)F)c2)cc(N2CCN(C3CC3)CC2)n1 [Example 8, 4-(4-Cyclopropyl-piperazin-1-yl)-6-(trifluoromethyl-phenyl)-pyrimidine-2-carbonitrile hydrochloric acid salt]

SMILES | IC50
COc1ccc(-c2cc(N3CCNCC3)nc(C#N)n2)cc1C(F)(F)F [Example 17, 4-(4-Methoxy-3-trifluoromethyl-phenyl)-6-piperazin-1-yl-pyrimidine-2-carbonitrile] | < 10 nM
CN1CCC(N(C)c2cc(-c3cccc(C(F)(F)F)c3)nc(C#N)n2)CC1 [Example 16k, 4-[Methyl-(1-methyl-piperidin-4-yl)-amino]-6-(3-trifluoromethyl-phenyl)-pyrimidine-2-carbonitrile trifluoroacetic acid salt] | < 10 nM
N#Cc1nc(-c2cccc(C(F)(F)F)c2)cc(N2CCN(CCC(=O)O)CC2)n1 [Example 5, 4-[4-(2-carboxy-ethyl)-piperazin-1-yl]-6-(3-trifluoromethyl-phenyl)-pyrimidine-2-carbonitrile trifluoroacetic acid salt] | < 10 nM
